Experimental findings from publication PMC6891695, “Evaluation of Antifouling Potential and Ecotoxicity of Secondary Metabolites Derived from Red Algae of the Genus Laurencia” (Marine Drugs, 2019) are described below.

The nature of one series: in vivo. Conditions: Amphibalanus amphitrite, in vivo, read-out: LC50 Mortality; for LC50 at 24 h: 24 h exposure; for LC50 at 48 h: 48 h exposure; for LC50 at 72 h: 72 h exposure. In kind it is in vivo. As to the method: (§1) Adult A. amphitrite (Cirripedia, Balanidae) were collected from boat docks at Port Mikrolimano and Floisvos, Athens, Greece. Animals were cleaned of epibionts with a small hard brush and meticulously identified as individuals of the species. Adult barnacles were kept in separate aerated glass tanks (20 L) containing 200-μm filtered natural seawater at 27 °C and a 12:12 L:D photoperiod. Tanks were fed with 24-h hatched Artemia sp. (Branchiopoda) nauplii and Tetraselmis suecica (Chlorodendrophyceae) and Skeletonema costatum (Bacillariophyceae) algae each day and seawater was changed on alternate days. Upon stress to induce oviposition (exposure to air for 24 h or immersion in fresh water for 5 h), adults were returned to seawater for larval release. Hatched nauplii were attracted to a point light source, collected and placed into a beaker containing 2 or 3 L of 0.7 μm GF/F (GE Healthcare, Little Chalfont, UK )-filtered natural seawater at a density of approximately 1–2 nauplii/mL with gentle aeration. Nauplii were maintained at 27 °C at a 12:12 L:D photoperiod on a diet of C. gracilis (Bacillariophyceae) provided at a density of 2 × 10^5 cells/mL. Cultured in these conditions, nauplii metamorphosed to cyprids in 5 days. Aliquots of these cyprids were collected with a wide-mouthed Pasteur pipette and aged at 4 °C for 1 day prior to use in settlement assays. Only batches of cyprids that were active and had numerous oil cells, representing energy reserves, were used in settlement assays.
(§2) Assays were conducted by adding 10 cyprids into individual wells of a 24-well polystyrene sterile microplate (Orange Scientific, Braine l’Alleud, Belgium) with 2 mL of artificial sea water (ASW) (25‰) and various concentrations of the chemical compounds as listed in Table 1. These experiments were repeated at least three times with four replicates for each concentration of any given compound (n = 120 cyprids/compound). Stock solutions for all compounds were prepared in methanol (Scharlab, Barcelona, Spain) and serial dilutions were prepared in 0.7 μm (GF/F, GE Healthcare, Little Chalfont, UK), filtered sea water to have a final concentration of 2.5% methanol in each assay solution. Plates were covered and sealed with Parafilm® to avoid evaporation and incubated at 25 °C away from any light source and examined after 24, 48 and 72 h. Each animal was inspected under a stereomicroscope and its condition was recorded. […] Both permanently attached and metamorphosed individuals were counted as settled or juveniles. The remainder were counted as ‘no metamorphosis’, i.e. animals that responded to light touch and were still cyprids at the end of the experiments with no overt signs of metamorphosis.
(§3) For EC50 or IC50 (the concentration that results in 50% stimulation or inhibition relative to the control) calculations in GraphPad Prism v.6, all data were fitted to the curve according to the following models for normalized response: Y = 100/(1 + 10^((X − LogIC50))) or Y = 100/(1 + 10^((LogEC50 − X))) depending on the trend of the curve.

In the next series the test system is cyprids of A. amphitrite. Kind of series: whole plant or invertebrate. In kind it is in vivo. Conditions: for pEC50 / pIC50: Amphibalanus amphitrite; for pEC50: read-out: EC50 No Metamorphosis; for pIC50: read-out: IC50 Settlement; for toxic effect on cyprids: in vivo. Here is the method:
as §1, §2, §3

Molecules are shown by their SMILES. pEC50, pIC50: −log10 of the molar value. Where two headings read alike, the source gives them in different places. Some results are limits rather than exact numbers.

As a reminder, the LC50 is the concentration lethal to half of the exposed cells or organisms. Broadly, the pEC50 is −log10 of the EC50, conventionally taken in molar units. In general, pIC50 refers to −log10 of the IC50, conventionally taken in molar units.

In the case of `C=C1CC[C@@](C)(c2ccc(C)cc2)[C@H]1C` [Compound 1, laurene], in “in vivo”, the LC50 at 24 h came out at 26 µM, the LC50 at 48 h worked out at 230 µM and the 50% lethal concentration (LC50) at 72 h amounted to 29.5 µM. In addition, in the series with cyprids of A. amphitrite (24 h), the negative logarithm of the EC50 (pEC50) is 4.42 and the pIC50 was 4.55. In the series on cyprids of A. amphitrite (48 h), the pIC50 was 4.83. Also, in the series with cyprids of A. amphitrite (72 h), the pIC50 is 4.79.

In the case of `C=C1CC[C@@](C)(c2ccc(C)cc2OC(C)=O)[C@H]1C` [Compound 2, debromoallolaurinterol acetate], in “in vivo”, the LC50 at 24 h is greater than 1000 µM, the LC50 at 48 h is 790 µM and the LC50 at 72 h came out at 191 µM. Also, in the series with cyprids of A. amphitrite (24 h), the pEC50 was 4.36 and the pIC50 was 5.69. Besides, in the series on cyprids of A. amphitrite (48 h), the pEC50 was 4.42 and the negative logarithm of the IC50 (pIC50) is 4.74. In addition, in the series on cyprids of A. amphitrite (72 h), the negative logarithm of the EC50 (pEC50) was 4.44 and the pIC50 is 4.70.

For `C=C1CC[C@@](C)(c2cc(Br)c(C)cc2OC(C)=O)[C@H]1C` [Compound 3, allolaurinterol acetate], in the series “in vivo”, the LC50 at 24 h was found to be 66.1 µM, the LC50 at 48 h was 382 µM and the median lethal concentration (LC50) at 72 h turned out to be 269 µM. Also, in the series on cyprids of A. amphitrite (24 h), the negative logarithm of the IC50 (pIC50) is 5.98. Besides, in the series on cyprids of A. amphitrite (48 h), the negative logarithm of the EC50 (pEC50) was 4.09 and the pIC50 was 5.74. In the series on cyprids of A. amphitrite (72 h), the pEC50 is 3.96 and the pIC50 is 5.70.

As for `Cc1cc2c(cc1Br)C1(C)CCC(C)(O2)C1C` (centres unmarked) [Compound 5, filiformin], the LC50 at 24 h in the series “in vivo” was found to be 33.1 µM. Also, the pEC50 in the series on cyprids of A. amphitrite (24 h) is 4.57; in the series on cyprids of A. amphitrite (48 h), 9.00; in the series with cyprids of A. amphitrite (72 h), 6.54. In addition, the values for the pIC50 in the series on cyprids of A. amphitrite (24 h), in the series on cyprids of A. amphitrite (48 h) and in the series on cyprids of A. amphitrite (72 h) were 5.65, 5.26 and 4.89, respectively.

In the case of `Cc1cc(O)c(C2(C)CCC3CC32C)cc1Br` (centres unmarked) [Compound 6, laurinterol], in the series “in vivo”, the LC50 at 24 h turned out to be 12.3 µM, the median lethal concentration (LC50) at 48 h amounted to 5.29 µM and the median lethal concentration (LC50) at 72 h turned out to be 2.31 µM. For the same compound, in the series with cyprids of A. amphitrite (24 h), the pEC50 is 4.55 and the pIC50 is 5.62. Also, in the series with cyprids of A. amphitrite (48 h), the pEC50 is 4.96 and the negative logarithm of the IC50 (pIC50) is 5.65. Moreover, in the series with cyprids of A. amphitrite (72 h), the pEC50 is 4.82 and the negative-log IC50 (pIC50) is 5.90. Moreover, the “toxic effect on cyprids” value in the series on cyprids of A. amphitrite is recorded as “obvious toxic effect on cyprids”.

For the compound `CC(C)[C@H]1CC(C)(C)[C@@H](O)C2=C1CC[C@H]2C` [Compound 7, epibrasilenol], in “in vivo”, the LC50 at 24 h came to 24.8 µM, the LC50 at 48 h came to 23.4 µM and the median lethal concentration (LC50) at 72 h was determined as 25 µM. Also, in the series with cyprids of A. amphitrite (24 h), the pEC50 was 4.59 and the pIC50 was 4.76. Moreover, in the series on cyprids of A. amphitrite (48 h), the pEC50 was 4.66 and the negative-log IC50 (pIC50) is 4.75. In addition, in the series on cyprids of A. amphitrite (72 h), the negative logarithm of the EC50 (pEC50) is 4.27 and the pIC50 is 4.99.

Regarding `CC(C)C1=C2CCC(C)C2CC(C)(C)C1O` (centres unmarked) [Compound 8, 4-hydroxy-5-brasilene], in the series “in vivo”, the LC50 at 24 h was 7.76 µM, the LC50 at 48 h turned out to be 7.38 µM and the median lethal concentration (LC50) at 72 h stood at 5.93 µM. In the series on cyprids of A. amphitrite (24 h), the pEC50 was 5.17 and the pIC50 is 4.80. Also, in the series on cyprids of A. amphitrite (48 h), the pEC50 was 5.30 and the pIC50 was 4.76. Besides, in the series with cyprids of A. amphitrite (72 h), the pEC50 is 5.27 and the pIC50 is 5.16. For the same compound, in the series on cyprids of A. amphitrite, the “toxic effect on cyprids” value was “obvious toxic effect on cyprids”.

On to `CC1=CC[C@@]2(C)C(=C(C)C(=O)[C@@H](O)[C@@H]2C)CC1` [Compound 10, perforenone A], for which, in “in vivo”, the median lethal concentration (LC50) at 24 h is 28.8 µM, the 50% lethal concentration (LC50) at 48 h worked out at 28.5 µM and the median lethal concentration (LC50) at 72 h was 28.8 µM. Also, in the series with cyprids of A. amphitrite (24 h), the pEC50 was 4.41 and the pIC50 is 5.28. Also, in the series on cyprids of A. amphitrite (48 h), the negative logarithm of the EC50 (pEC50) was 4.15 and the pIC50 was 6.18. In the series with cyprids of A. amphitrite (72 h), the negative-log EC50 (pEC50) is 4.24 and the pIC50 is 5.33.

As for `C=CC(C)(O)CC[C@H](Br)[C@@]1(C)CC[C@H](Br)C(C)(C)O1` (some centres unmarked) [Compound 13, obtusenol], in “in vivo”, the LC50 at 24 h is 29.8 µM, the LC50 at 48 h was 849 µM and the median lethal concentration (LC50) at 72 h worked out at 8.15 µM. In the series with cyprids of A. amphitrite (24 h), the pEC50 was 4.33 and the negative-log IC50 (pIC50) is 5.83. For the same compound, in the series with cyprids of A. amphitrite (48 h), the pEC50 was 4.19 and the pIC50 was 5.97. In the series with cyprids of A. amphitrite (72 h), the negative logarithm of the EC50 (pEC50) is 4.10 and the pIC50 was 5.99.

As for `CC(=O)OCC(Br)C1(C)CC=C2C(C1)C(O)CC1C2(C)CC(OC(C)=O)C2CC21C` (centres unmarked) [Compound 15, deoxyparguerol 16-acetate], in “in vivo”, the LC50 at 24 h amounted to 31.7 µM, the LC50 at 48 h came to 33.4 µM and the LC50 at 72 h turned out to be 34.6 µM. Also, in the series with cyprids of A. amphitrite (24 h), the pEC50 is 4.20 and the pIC50 is 5.55. For the same compound, in the series with cyprids of A. amphitrite (48 h), the pEC50 was 4.26 and the pIC50 was 5.15. In the series on cyprids of A. amphitrite (72 h), the negative-log EC50 (pEC50) was 4.14 and the negative-log IC50 (pIC50) was 5.27.

As for `C=CC(C)(O)CCC1C(=C)CCC(Br)C1(C)CCC(O)C(C)(C)Cl` (centres unmarked) [Compound 16], in the series “in vivo”, the LC50 at 24 h was greater than 1000 µM, the 50% lethal concentration (LC50) at 48 h was greater than 1000 µM and the LC50 at 72 h is greater than 1000 µM. In addition, in the series with cyprids of A. amphitrite (24 h), the pEC50 is 4.23 and the pIC50 is 5.85. In the series on cyprids of A. amphitrite (48 h), the negative-log EC50 (pEC50) was 4.31 and the pIC50 is 5.71. For the same compound, in the series on cyprids of A. amphitrite (72 h), the pEC50 was 4.23 and the negative-log IC50 (pIC50) was 5.66.

Take `C=CC(C)(O)CCC1C(=C)CCC(Br)C1(C)CCC(Br)C(C)(C)O` (centres unmarked) [Compound 17]: the LC50 at 72 h in the series “in vivo” is greater than 1000 µM. For the same compound, the pEC50 is 7.24 with cyprids of A. amphitrite (24 h), 6.04 in the series on cyprids of A. amphitrite (48 h) and 4.00 in the series with cyprids of A. amphitrite (72 h). Further, the results for the pIC50 in the series on cyprids of A. amphitrite (24 h), with cyprids of A. amphitrite (48 h) and in the series with cyprids of A. amphitrite (72 h) were 6.20, 6.09 and 5.92, respectively.

On to `CC(=CC=CC1(C)CCC(Br)C(C)(C)O1)C1CCC(C)(O)C(Br)C1` (centres unmarked) [Compound 20, O^11,15-cyclo-14-bromo-14,15-dihydrorogiol-3,11-diol], for which the LC50 at 72 h in “in vivo” was determined as 138 µM. Further, the results for the pEC50 in the series with cyprids of A. amphitrite (24 h), with cyprids of A. amphitrite (48 h) and in the series on cyprids of A. amphitrite (72 h) were 4.33, 4.95 and 5.00, respectively. Further, the values for the pIC50 in the series with cyprids of A. amphitrite (24 h), in the series on cyprids of A. amphitrite (48 h) and with cyprids of A. amphitrite (72 h) were 5.59, 5.54 and 5.48, respectively.

Turning to `C#CC=CCC1OC(C=CC)CC=CCC1Cl` (centres unmarked) [Compound 21, (3Ε)-laurenyne], in “in vivo”, the median lethal concentration (LC50) at 24 h worked out at 0.575 µM, the LC50 at 48 h was 1.12 µM and the LC50 at 72 h was 18.6 µM. Further, in the series with cyprids of A. amphitrite (24 h), the pEC50 is 5.13 and the pIC50 was 5.49. For the same compound, in the series on cyprids of A. amphitrite (48 h), the pEC50 is 4.74 and the negative-log IC50 (pIC50) is 5.13. In the series on cyprids of A. amphitrite (72 h), the pEC50 was 9.00 and the negative-log IC50 (pIC50) is 6.24.

For the compound `CCC=CCC(Br)C(CC1OC(C=C=CBr)CC1OC(C)=O)OC(C)=O` (centres unmarked) [Compound 23, graciosallene], the negative logarithm of the EC50 (pEC50) with cyprids of A. amphitrite (24 h) is 6.56; with cyprids of A. amphitrite (48 h), 4.99; with cyprids of A. amphitrite (72 h), 4.95. Also, the pIC50 in the series with cyprids of A. amphitrite (24 h) is 6.63; in the series with cyprids of A. amphitrite (48 h), 5.04; with cyprids of A. amphitrite (72 h) it was 5.01.
